According to US12391676B2 (H. LEE MOFFITT CANCER CENTER AND RESEARCH INSTITUTE, INC., priority 2018, dated 2025):
Entries after “also recorded” stand apart in the source; their conditions may differ. Like-named read-outs stand apart in the source and are kept apart here.

Assays:
[1] = tested on: UKE1 cells; experiment: Drug persistence of UKE1 cells under escalating drug concentration; type: cell-based
Method: UKE1 cells were incubated with DMSO, MA9-060, fedratinib, or ruxolitinib at their respective GI20 concentrations. Cell growth was compared to DMSO. Cells were passed back to the same density after counting. Drug concentration was doubled if growth was >90% of DMSO. Fold GI20 is plotted vs time, with drug persistence represented by upward steps of the lines. The final MA9-060, ruxolitinib, and fedratinib concentrations at the end of the experiment were 0.15, 0.6 and 2.4 uM, respectively. Fedratinib-treated cells lost complete viability after about 30 days (after 3 weeks in 2.4 uM).

[2] = tested on: MM1.S cells; experiment: Antiproliferative activity, MM1.S cells; type: cell-based; details: Homo sapiens
Outline: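 MM.1S and MV4-11 AML cells were treated with compounds; c-Myc levels served as biomarker after 6-12 hr treatment, and antiproliferative activity was measured after 48-72 hr treatment.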

[3] = tested on: UKE1 cells; experiment: Growth inhibition GI50, UKE1 cells; type: cell-based; details: UKE1, Table 2; read-out: GI50 (UKE1)
[4] = tested on: primary human hematopoietic progenitor cells; experiment: CFU-G/M colony formation of primary patient cells; type: cell-based; details: colonies after 2 weeks
Method: (§1) Colony formation was determined after 2 weeks and is indicated relative to no drug (DMSO).

[5] = target: JAK2 (Homo sapiens (Human), UniProt O60674); experiment: JAK2 IC50; type: biochemical; details: Table 2
[6] = target: T1, BRD4 (Homo sapiens (Human), UniProt O60885); experiment: BRD4 DSF thermal shift (ΔTm); type: binding
[7] = tested on: PBMCs from a JAK2-V617F+ myelofibrosis patient; experiment: Epo-independent erythroid colony (EEC) formation of primary MPN patient cells; details: colonies after 2 weeks, relative to DMSO, compared with fedratinib and ruxolitinib
Method: as §1

[8] = tested on: BaF3-JAK2-V617F-luciferase cells; details: for median survival (post-treatment start): treated for 14 days
Method: Vehicle control and MA9-060 were administered orally twice daily at the indicated doses to Balb/c mice injected with BaF3-JAK2-V617F-luciferase cells. Mice were imaged for luciferase activity before (Day 0) and after 7 days of treatment (Tx) (FIG. 3A) with the mean total flux from target cells shown in (FIG. 3B).

[9] = target: T1, BRD4; experiment: BRD4 IC50; type: binding; details: Table 2
[10] = Human microsome stability; type: in vitro ADME; details: Table 1 comments; meaning of % not stated
[11] = tested on: SET2 cells; experiment: Growth inhibition GI50, SET2 cells; type: cell-based; details: Homo sapiens, SET-2; Table 1 comments; unit printed only for the neighbouring values in the cell
[12] = tested on: BaF3-JAK2-VF cells; experiment: Growth inhibition GI50, BaF3-JAK2-VF cells; type: cell-based; details: Table 1 comments
[13] = Mouse microsome stability; type: in vitro ADME; details: Table 1 comments; meaning of % not stated
[14] = tested on: c-Myc; details: background, literature; cited from earlier work
[15] = tested on: MV4-11 AML cells; details: background, literature; read-out: IC50, proliferation of MV4-11 AML cells; cited from earlier work

Sequence of JAK2 (O60674 whole entry): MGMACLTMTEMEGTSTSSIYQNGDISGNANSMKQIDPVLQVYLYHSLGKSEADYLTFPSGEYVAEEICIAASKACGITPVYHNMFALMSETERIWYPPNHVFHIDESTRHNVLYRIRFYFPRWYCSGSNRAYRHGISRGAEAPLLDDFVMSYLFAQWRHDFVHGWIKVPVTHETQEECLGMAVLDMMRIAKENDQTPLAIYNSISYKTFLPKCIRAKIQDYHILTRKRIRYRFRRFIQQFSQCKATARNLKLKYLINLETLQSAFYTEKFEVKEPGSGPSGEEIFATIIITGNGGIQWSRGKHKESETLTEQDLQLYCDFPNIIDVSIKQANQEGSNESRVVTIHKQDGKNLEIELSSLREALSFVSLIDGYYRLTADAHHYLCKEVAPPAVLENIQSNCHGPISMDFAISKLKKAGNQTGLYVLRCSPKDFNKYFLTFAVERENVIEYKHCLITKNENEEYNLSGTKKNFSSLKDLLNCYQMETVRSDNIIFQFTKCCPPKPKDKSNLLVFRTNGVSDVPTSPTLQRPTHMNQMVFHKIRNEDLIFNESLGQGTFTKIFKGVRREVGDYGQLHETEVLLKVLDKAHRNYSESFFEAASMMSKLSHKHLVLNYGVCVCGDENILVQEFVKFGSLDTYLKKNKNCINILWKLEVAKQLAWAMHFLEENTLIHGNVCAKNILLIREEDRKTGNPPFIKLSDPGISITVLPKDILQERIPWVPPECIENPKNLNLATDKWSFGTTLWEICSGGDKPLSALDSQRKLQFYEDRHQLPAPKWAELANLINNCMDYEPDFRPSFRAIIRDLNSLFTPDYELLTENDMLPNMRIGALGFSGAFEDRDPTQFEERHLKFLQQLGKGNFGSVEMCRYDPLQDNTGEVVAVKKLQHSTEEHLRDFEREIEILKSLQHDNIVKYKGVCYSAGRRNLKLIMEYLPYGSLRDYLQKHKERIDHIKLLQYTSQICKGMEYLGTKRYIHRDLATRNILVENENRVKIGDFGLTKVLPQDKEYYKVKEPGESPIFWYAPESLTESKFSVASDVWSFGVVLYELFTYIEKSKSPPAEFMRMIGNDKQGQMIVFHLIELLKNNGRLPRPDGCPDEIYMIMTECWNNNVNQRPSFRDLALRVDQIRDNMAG

SMILES: Cc1cnc(Nc2ccc(C3CCN(C)CC3)c(F)c2)nc1Nc1ccc(Cl)c(NS(=O)(=O)C(C)(C)C)c1 [MA9-060, N-(2-Chloro-5-((2-((3-fluoro-4-(1-methylpiperidin-4-yl)phenyl)amino)-5-methylpyrimidin-4-yl)amino)phenyl)-2-methylpropane-2-sulfonamide]
- development of drug persistence ([1]; UKE1 cells started at GI20, concentration doubled if growth >90% of DMSO): do not develop drug persistence; also recorded: could not escape a low concentration
- final drug concentration at the end of the experiment ([1]; UKE1 cells, drug persistence experiment): 0.15 µM
- GI50 ([2]; Table 2, read-out: GI50 (MM1S)): 43 nM
- GI50 [3]: 150 nM
- effect on CFU-G/M colony growth [4]: not affected; also recorded: Little effect
- IC50 [5]: 3.3 nM
- BRD4 DSF (ΔTm) ([6]; Table 2): 14.5 °C
- inhibition of Epo-independent (neoplastic) erythroid colony (EEC) formation [7]: more effective than Fedratinib or Ruxolitinib; also recorded: superior to fedratinib and ruxolitinib
- median survival (post-treatment start) ([8]; 10 mg/kg orally twice daily): 19 days
- median survival (post-treatment start) ([8]; 25 mg/kg orally twice daily): 26 days
- toxicity ([8]; 25 mg/kg twice daily orally): No toxicity was detected
- median survival (post-treatment start) ([8]; 50 mg/kg orally twice daily): 31 days
- inhibition of BaF3-JAK2-V617F-luciferase cells in Balb/c mice ([8]; oral, twice daily, luciferase imaging): dose-dependent inhibition
- IC50 [9]: 26 nM

SMILES: Cc1cnc(Nc2ccc(C3CCN(C)CC3)c(F)c2)nc1Nc1ccc(Cl)c(NS(=O)(=O)C(C)(C)C)c1 [drawing 9]
- Human microsome [10]: 42.6%
- GI50 [11]: 54 nM
- GI50 [12]: 28 nM
- IC50 ([2]; Table 1 comments): 43 nM
- Mouse microsome [13]: 100%
- DSF ΔTm ([6]; Table 1): 14.2 °C

SMILES: Cc1cnc(Nc2ccc(OCCN3CCCC3)cc2)nc1Nc1cccc(S(=O)(=O)NC(C)(C)C)c1 [TG101348]
- downregulation of c-Myc in MM.1S cells [14]: strong downregulation
- IC50 [15]: 79 nM
